Literature values, collected in patent US20140316796A1, “SYSTEMS, METHODS, AND COMPUTER-READABLE MEDIA FOR LIMITED DISTRIBUTION OF SPECIALTY DRUG USING A COMPUTER HUB OPERATING AT A SINGLE ACCESS POINT” (Jazz Pharmaceuticals, priority 2013, published 2014).

Conditions: pH 4

In the case of `CSCC[C@@H]1NC(=O)[C@H](CC(C)C)NC(=O)[C@H](CCCNC(=N)N)NC(=O)[C@H](CO)NC(=O)[C@@H]2CSSC[C@@H]3NC(=O)[C@H](CO)NC(=O)CNC(=O)[C@H]([C@@H](C)O)NC(=O)[C@H](CSSC[C@H](N)C(=O)N[C@@H](CCCCN)C(=O)NCC(=O)N[C@@H](CCCCN)C(=O)NCC(=O)N[C@@H](C)C(=O)N[C@@H](CCCCN)C(=O)N2)NC(=O)[C@H](CSSC[C@@H](C(N)=O)NC(=O)[C@H](CCCCN)NC(=O)CNC(=O)[C@H](CO)NC(=O)[C@H](CCCNC(=N)N)NC3=O)NC(=O)[C@H](CC(=O)O)NC(=O)[C@H](Cc2ccc(O)cc2)NC1=O` [ziconotide], the solution stability is given as “stable at 45 °C for weeks”.
